From ChEMBL document CHEMBL1138438, “Structural-activity relationship study of highly-functionalized imidazolines as potent inhibitors of nuclear transcription factor-kappaB mediated IL-6 production” (Bioorg Med Chem, 2009)

Experiments:
HeLa [1] = assay: Cell cycle arrest in TNF-alpha-stimulated human HeLa cells transfected with NFkappaB-Luc assessed as accumulation at total S phase at 5 uM after 8 hrs by using propidium iodide staining by FACS analysis; type: functional
HeLa [2] = assay: Effect on cell cycle arrest in TNF-alpha-stimulated human HeLa cells transfected with NFkappaB-Luc assessed as total background cell aggregate and debris level at 5 uM after 8 hrs by using propidium iodide staining by FACS analysis; type: functional
HeLa [3] = assay: Effect on cell cycle arrest in TNF-alpha-stimulated human HeLa cells transfected with NFkappaB-Luc assessed as cell debris level at 5 uM after 8 hrs by using propidium iodide staining by FACS analysis; type: functional
HeLa [4] = assay: Cell cycle arrest in TNF-alpha-stimulated human HeLa cells transfected with NFkappaB-Luc assessed as accumulation at diploid stage at 1 uM after 8 hrs by using propidium iodide staining by FACS analysis; type: functional
HeLa [5] = assay: Cell cycle arrest in TNF-alpha-stimulated human HeLa cells transfected with NFkappaB-Luc assessed as accumulation at diploid G1 phase at 1 uM after 8 hrs by using propidium iodide staining by FACS analysis; type: functional
HeLa [6] = assay: Cell cycle arrest in TNF-alpha-stimulated human HeLa cells transfected with NFkappaB-Luc assessed as accumulation at diploid G2 phase at 1 uM after 8 hrs by using propidium iodide staining by FACS analysis; type: functional
HeLa [7] = assay: Cell cycle arrest in TNF-alpha-stimulated human HeLa cells transfected with NFkappaB-Luc assessed as accumulation at diploid S phase at 1 uM after 8 hrs by using propidium iodide staining by FACS analysis; type: functional
HeLa [8] = assay: Effect on cell cycle arrest in TNF-alpha-stimulated human HeLa cells transfected with NFkappaB-Luc assessed as cell debris level at 1 uM after 8 hrs by using propidium iodide staining by FACS analysis; type: functional
HeLa [9] = assay: Effect on cell cycle arrest in TNF-alpha-stimulated human HeLa cells transfected with NFkappaB-Luc assessed as cell aggregate level at 1 uM after 8 hrs by using propidium iodide staining by FACS analysis; type: functional
HeLa [10] = assay: Cell cycle arrest in TNF-alpha-stimulated human HeLa cells transfected with NFkappaB-Luc assessed as accumulation at diploid G1 phase at 0.5 uM after 8 hrs by using propidium iodide staining by FACS analysis; type: functional
HeLa [11] = assay: Cell cycle arrest in TNF-alpha-stimulated human HeLa cells transfected with NFkappaB-Luc assessed as accumulation at G2/G1 phase at 0.5 uM after 8 hrs by using propidium iodide staining by FACS analysis; type: functional
HeLa [12] = assay: Effect on cell cycle arrest in TNF-alpha-stimulated human HeLa cells transfected with NFkappaB-Luc assessed as total background cell aggregate and debris level at 0.5 uM after 8 hrs by using propidium iodide staining by FACS analysis; type: functional
HeLa [13] = assay: Cell cycle arrest in TNF-alpha-stimulated human HeLa cells transfected with NFkappaB-Luc assessed as accumulation at diploid stage at 0.1 uM after 8 hrs by using propidium iodide staining by FACS analysis; type: functional
HeLa [14] = assay: Cell cycle arrest in TNF-alpha-stimulated human HeLa cells transfected with NFkappaB-Luc assessed as accumulation at diploid G1 phase at 0.1 uM after 8 hrs by using propidium iodide staining by FACS analysis; type: functional
HeLa [15] = assay: Cell cycle arrest in TNF-alpha-stimulated human HeLa cells transfected with NFkappaB-Luc assessed as accumulation at diploid G2 phase at 0.1 uM after 8 hrs by using propidium iodide staining by FACS analysis; type: functional
HeLa [16] = assay: Effect on cell cycle arrest in TNF-alpha-stimulated human HeLa cells transfected with NFkappaB-Luc assessed as total background cell aggregate and debris level at 0.1 uM after 8 hrs by using propidium iodide staining by FACS analysis; type: functional
HeLa [17] = assay: Effect on cell cycle arrest in TNF-alpha-stimulated human HeLa cells transfected with NFkappaB-Luc assessed as cell aggregate level at 0.1 uM after 8 hrs by using propidium iodide staining by FACS analysis; type: functional
HeLa [18] = assay: Cell cycle arrest in TNF-alpha-stimulated human HeLa cells transfected with NFkappaB-Luc assessed as accumulation at diploid G1 phase at 0.05 uM after 8 hrs by using propidium iodide staining by FACS analysis; type: functional
HeLa [19] = assay: Cell cycle arrest in TNF-alpha-stimulated human HeLa cells transfected with NFkappaB-Luc assessed as accumulation at total S phase at 0.05 uM after 8 hrs by using propidium iodide staining by FACS analysis; type: functional
[20] = Cytotoxicity against IL-1-beta-stimulated human whole blood lymphocytes assessed as survival cell count in millions at 3 uM after 24 hrs by trypan blue staining-based hemocytometry
[21] = Cytotoxicity against IL-1-beta-stimulated human whole blood lymphocytes assessed as survival cell count in millions at 1 uM after 24 hrs by trypan blue staining-based hemocytometry
Blood = assay: Antiinflammatory activity in human whole blood assessed as inhibition of IL-1-beta-stimulated IL6 production preincubated 2 hrs before IL1-beta challenge measured after 22 hrs by ELISA; type: functional, tissue-based
[22] = Inhibition of NF-kappaB-mediated gene transcription expressed in TNF-alpha-stimulated human HeLa cells for 30 mins before TNFalpha challenge measured after 8 hrs by steady-glo luciferase reporter gene assay; type: cell-based
[23] = Cytotoxicity against human 184B5 cells after 24 hrs by MTS assay; type: cell-based
HeLa [24] = assay: Cell cycle arrest in human HeLa cells transfected with NFkappaB-Luc assessed as accumulation at G2/G1 phase at 20 uM after 8 hrs by using propidium iodide staining by FACS analysis; type: functional
HeLa [25] = assay: Cell cycle arrest in TNF-alpha-stimulated human HeLa cells transfected with NFkappaB-Luc assessed as accumulation at diploid G2 phase at 20 uM after 8 hrs by using propidium iodide staining by FACS analysis; type: functional
HeLa [26] = assay: Cell cycle arrest in TNF-alpha-stimulated human HeLa cells transfected with NFkappaB-Luc assessed as accumulation at diploid S phase at 20 uM after 8 hrs by using propidium iodide staining by FACS analysis; type: functional
HeLa [27] = assay: Cell cycle arrest in TNF-alpha-stimulated human HeLa cells transfected with NFkappaB-Luc assessed as accumulation at G2/G1 phase at 20 uM after 8 hrs by using propidium iodide staining by FACS analysis; type: functional
HeLa [28] = assay: Effect on cell cycle arrest in TNF-alpha-stimulated human HeLa cells transfected with NFkappaB-Luc assessed as cell aggregate level at 20 uM after 8 hrs by using propidium iodide staining by FACS analysis; type: functional
HeLa [29] = assay: Cell cycle arrest in TNF-alpha-stimulated human HeLa cells transfected with NFkappaB-Luc assessed as accumulation at diploid G2 phase at 10 uM after 8 hrs by using propidium iodide staining by FACS analysis; type: functional
HeLa [30] = assay: Cell cycle arrest in TNF-alpha-stimulated human HeLa cells transfected with NFkappaB-Luc assessed as accumulation at diploid S phase at 10 uM after 8 hrs by using propidium iodide staining by FACS analysis; type: functional
HeLa [31] = assay: Effect on cell cycle arrest in TNF-alpha-stimulated human HeLa cells transfected with NFkappaB-Luc assessed as cell aggregate level at 10 uM after 8 hrs by using propidium iodide staining by FACS analysis; type: functional
HeLa [32] = assay: Cell cycle arrest in TNF-alpha-stimulated human HeLa cells transfected with NFkappaB-Luc assessed as accumulation at diploid G1 phase at 5 uM after 8 hrs by using propidium iodide staining by FACS analysis; type: functional

**Q.** For CCOC(=O)[C@]1(c2ccccc2)N=C(c2ccccc2)N(Cc2ccccc2)[C@@H]1c1ccccc1 (racemic), which Activity (HeLa [1]) is on record?
**A.** 19.8%

**Q.** What about the Activity (HeLa [2]) of the same compound?
**A.** 1.14%

**Q.** What about the Activity (HeLa [3]) of the same compound?
**A.** 2.7%

**Q.** And the Activity (HeLa [4])?
**A.** 100%

**Q.** And the Activity (HeLa [5])?
**A.** 63.22%

**Q.** And the Activity (HeLa [6])?
**A.** 13.88%

**Q.** What about the Activity (HeLa [7]) of the same compound?
**A.** 22.9%

**Q.** What about the Activity (HeLa [8]) of the same compound?
**A.** 4.88%

**Q.** And the Activity (HeLa [9])?
**A.** 0%

**Q.** What about the Activity (HeLa [10]) of the same compound?
**A.** 64.08%

**Q.** And the Activity (HeLa [11])?
**A.** 1.91%

**Q.** And the Activity (HeLa [12])?
**A.** 1.29%

**Q.** And the Activity (HeLa [13])?
**A.** 100%

**Q.** What about the Activity (HeLa [14]) of the same compound?
**A.** 64.5%

**Q.** What about the Activity (HeLa [15]) of the same compound?
**A.** 14.03%

**Q.** And the Activity (HeLa [16])?
**A.** 0.58%

**Q.** What about the Activity (HeLa [17]) of the same compound?
**A.** 0%

**Q.** And the Activity (HeLa [18])?
**A.** 64.3%

**Q.** And the Activity (HeLa [19])?
**A.** 22.8%

**Q.** What about the Activity [20] of the same compound?
**A.** 1.06 mL⁻¹

**Q.** And the Activity [21]?
**A.** 1.18 mL⁻¹

**Q.** What about the IC50 (Blood) of the same compound?
**A.** 2500 nM

**Q.** And the EC50 [22]?
**A.** 2500 nM

**Q.** And the CC50 at 24 h [23]?
**A.** > 10000 nM

**Q.** What about the Activity (HeLa [24]) of the same compound?
**A.** 1.9%

**Q.** And the Activity (HeLa [25])?
**A.** 14.75%

**Q.** And the Activity (HeLa [26])?
**A.** 19.29%

**Q.** And the Activity (HeLa [27])?
**A.** 1.9%

**Q.** And the Activity (HeLa [28])?
**A.** 0%

**Q.** What about the Activity (HeLa [29]) of the same compound?
**A.** 15.01%

**Q.** And the Activity (HeLa [30])?
**A.** 16.8%

**Q.** What about the Activity (HeLa [31]) of the same compound?
**A.** 0%

**Q.** What about the Activity (HeLa [32]) of the same compound?
**A.** 66.37%
